One experiment deals with Histamine H3 receptor (Homo sapiens, UniProt Q9Y5N1). The experiment is described as follows: Selectivity interaction (GPCR panel (PDSP screen)) EUB0000714a HRH3.
Experiment [1] has as its target T1, Dual specificity mitogen-activated protein kinase kinase 5 (Homo sapiens) (UniProt Q13163).
T1 sequence (whole entry): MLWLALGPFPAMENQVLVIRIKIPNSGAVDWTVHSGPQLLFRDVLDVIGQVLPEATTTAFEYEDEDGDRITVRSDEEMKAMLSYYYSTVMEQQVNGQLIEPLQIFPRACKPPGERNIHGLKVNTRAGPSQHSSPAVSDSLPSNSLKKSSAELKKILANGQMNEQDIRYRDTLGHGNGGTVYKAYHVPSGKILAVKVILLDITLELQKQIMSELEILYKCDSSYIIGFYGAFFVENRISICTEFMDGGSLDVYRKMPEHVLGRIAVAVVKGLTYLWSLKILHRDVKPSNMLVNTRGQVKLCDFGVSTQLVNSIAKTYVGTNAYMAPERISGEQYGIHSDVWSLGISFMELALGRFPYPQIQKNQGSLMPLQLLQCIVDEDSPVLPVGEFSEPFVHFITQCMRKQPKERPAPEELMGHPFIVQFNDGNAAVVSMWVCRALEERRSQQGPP
Kind of experiment: Selectivity interaction (KinomeScan (DiscoverX)) EUB0000714a MAP2K5. The conditions noted are these: at 100 nM.

For experiment [2], the target named is Dual specificity mitogen-activated protein kinase kinase 3 (Homo sapiens) (UniProt P46734). The experiment is described as follows: Selectivity interaction (KinomeScan (DiscoverX)) EUB0000714a MAP2K3. The following applies: at 100 nM.
Dual specificity mitogen-activated protein kinase kinase 3 (Homo sapiens), sequence (P46734 whole entry): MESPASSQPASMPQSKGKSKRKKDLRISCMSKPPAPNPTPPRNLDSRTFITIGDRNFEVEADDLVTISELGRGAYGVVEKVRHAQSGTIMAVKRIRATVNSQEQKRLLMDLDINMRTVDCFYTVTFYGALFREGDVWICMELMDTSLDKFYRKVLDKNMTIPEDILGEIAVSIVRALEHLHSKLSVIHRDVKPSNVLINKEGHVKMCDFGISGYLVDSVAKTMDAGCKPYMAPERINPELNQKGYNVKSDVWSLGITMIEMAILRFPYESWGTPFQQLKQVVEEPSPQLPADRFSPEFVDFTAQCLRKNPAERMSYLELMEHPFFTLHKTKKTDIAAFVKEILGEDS
Experiment [3] deals with High affinity nerve growth factor receptor (Homo sapiens, UniProt P04629). Kind of experiment: Selectivity interaction (KinomeScan (DiscoverX)) EUB0000714a NTRK1. The following applies: at 100 nM.
High affinity nerve growth factor receptor, sequence (P04629 33-796 limits assumed): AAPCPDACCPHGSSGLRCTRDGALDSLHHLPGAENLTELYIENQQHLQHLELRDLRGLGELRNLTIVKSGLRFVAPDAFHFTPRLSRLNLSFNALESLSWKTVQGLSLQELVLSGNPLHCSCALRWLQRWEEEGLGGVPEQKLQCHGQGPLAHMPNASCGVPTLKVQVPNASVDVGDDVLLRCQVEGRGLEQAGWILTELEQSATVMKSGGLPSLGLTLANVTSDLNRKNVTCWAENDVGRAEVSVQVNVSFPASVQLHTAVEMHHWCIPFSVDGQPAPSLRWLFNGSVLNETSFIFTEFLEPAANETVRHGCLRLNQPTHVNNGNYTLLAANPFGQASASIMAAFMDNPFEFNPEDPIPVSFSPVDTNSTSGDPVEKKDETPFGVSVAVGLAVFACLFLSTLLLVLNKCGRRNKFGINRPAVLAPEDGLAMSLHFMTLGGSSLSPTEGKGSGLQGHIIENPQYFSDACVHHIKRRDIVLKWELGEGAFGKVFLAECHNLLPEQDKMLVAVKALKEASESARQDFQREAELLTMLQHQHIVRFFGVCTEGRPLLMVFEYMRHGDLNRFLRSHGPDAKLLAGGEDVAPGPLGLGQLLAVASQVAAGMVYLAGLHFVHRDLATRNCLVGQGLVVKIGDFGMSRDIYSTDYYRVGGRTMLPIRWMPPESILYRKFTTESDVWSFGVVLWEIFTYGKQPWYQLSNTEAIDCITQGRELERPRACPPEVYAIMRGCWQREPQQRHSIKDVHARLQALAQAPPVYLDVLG
Experiment [4] deals with Phosphatidylinositol 4,5-bisphosphate 3-kinase catalytic subunit alpha isoform (Homo sapiens, UniProt P42336). The experiment is described as follows: Selectivity interaction (KinomeScan (DiscoverX)) EUB0000714a PIK3CA. The conditions noted are these: at 100 nM.
Phosphatidylinositol 4,5-bisphosphate 3-kinase catalytic subunit alpha isoform, sequence (P42336 whole entry, canonical isoform): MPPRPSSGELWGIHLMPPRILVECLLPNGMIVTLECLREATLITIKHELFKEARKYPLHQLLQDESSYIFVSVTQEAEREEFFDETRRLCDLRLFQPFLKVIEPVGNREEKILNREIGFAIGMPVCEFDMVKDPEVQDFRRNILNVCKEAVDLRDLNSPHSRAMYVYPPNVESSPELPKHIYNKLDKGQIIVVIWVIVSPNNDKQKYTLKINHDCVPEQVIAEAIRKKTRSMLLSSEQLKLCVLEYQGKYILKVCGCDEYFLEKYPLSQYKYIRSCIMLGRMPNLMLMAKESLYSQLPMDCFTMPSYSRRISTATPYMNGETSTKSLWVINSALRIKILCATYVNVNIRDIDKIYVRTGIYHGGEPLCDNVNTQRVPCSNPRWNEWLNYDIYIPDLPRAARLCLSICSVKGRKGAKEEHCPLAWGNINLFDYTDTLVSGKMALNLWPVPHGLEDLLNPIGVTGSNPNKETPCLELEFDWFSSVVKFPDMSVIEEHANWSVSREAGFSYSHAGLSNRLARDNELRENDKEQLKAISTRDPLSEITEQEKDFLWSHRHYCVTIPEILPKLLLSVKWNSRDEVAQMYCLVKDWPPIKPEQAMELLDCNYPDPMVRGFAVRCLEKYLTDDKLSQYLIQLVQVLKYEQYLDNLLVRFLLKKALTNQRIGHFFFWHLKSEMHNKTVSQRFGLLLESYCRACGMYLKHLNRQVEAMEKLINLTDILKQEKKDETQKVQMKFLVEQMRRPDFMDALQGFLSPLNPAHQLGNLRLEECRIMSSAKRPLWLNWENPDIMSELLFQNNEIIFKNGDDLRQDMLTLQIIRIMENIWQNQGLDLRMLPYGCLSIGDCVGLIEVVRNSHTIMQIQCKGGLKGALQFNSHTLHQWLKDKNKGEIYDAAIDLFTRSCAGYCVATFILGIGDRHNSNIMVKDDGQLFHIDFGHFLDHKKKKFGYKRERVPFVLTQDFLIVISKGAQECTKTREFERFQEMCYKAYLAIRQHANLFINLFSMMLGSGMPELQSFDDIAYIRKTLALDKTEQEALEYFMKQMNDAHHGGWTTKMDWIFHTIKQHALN
Experiment [5] deals with T2, Aurora kinase C (Homo sapiens) (UniProt Q9UQB9).
T2 sequence (whole entry): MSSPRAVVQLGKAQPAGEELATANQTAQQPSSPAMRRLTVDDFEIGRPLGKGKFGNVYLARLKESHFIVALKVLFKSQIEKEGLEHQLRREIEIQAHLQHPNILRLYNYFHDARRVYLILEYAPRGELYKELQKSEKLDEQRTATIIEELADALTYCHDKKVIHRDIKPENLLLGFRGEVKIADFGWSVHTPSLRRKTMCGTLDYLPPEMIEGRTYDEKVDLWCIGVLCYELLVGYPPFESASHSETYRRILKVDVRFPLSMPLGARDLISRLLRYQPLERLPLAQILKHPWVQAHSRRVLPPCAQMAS
The experiment is described as follows: Selectivity interaction (KinomeScan (DiscoverX)) EUB0000723a AURKC. The conditions noted are these: at 1 µM.

A further experiment deals with Aurora kinase C (Homo sapiens, UniProt Q9UQB9). The experiment is described as follows: Selectivity interaction (NanoBRET assay (HEK293T cells)) EUB0000723a AURKC. In general terms: Bioluminescence resonance energy transfer reports proximity on the nanometre scale.
Experiment [6] concerns the target Tyrosine-protein kinase ABL1 (Homo sapiens, UniProt P00519). The experiment is described as follows: Selectivity interaction (NanoBRET assay (HEK293T cells)) EUB0000723a ABL1.
In experiment [7] the test system is Tyrosine-protein kinase ABL1 (Homo sapiens), P00519 [T315I]. Kind of experiment: Selectivity interaction (KinomeScan (DiscoverX)) EUB0000723a ABL1. The conditions noted are these: at 1 µM.
In experiment [8] the target is Cyclin-dependent kinase 9 (Homo sapiens) (UniProt P50750). The experiment is described as follows: Selectivity interaction (Kinase Profiler (Millipore)) EUB0000677a CDK9. The conditions noted are these: at 1 µM.
Cyclin-dependent kinase 9 (Homo sapiens), sequence (P50750 whole entry): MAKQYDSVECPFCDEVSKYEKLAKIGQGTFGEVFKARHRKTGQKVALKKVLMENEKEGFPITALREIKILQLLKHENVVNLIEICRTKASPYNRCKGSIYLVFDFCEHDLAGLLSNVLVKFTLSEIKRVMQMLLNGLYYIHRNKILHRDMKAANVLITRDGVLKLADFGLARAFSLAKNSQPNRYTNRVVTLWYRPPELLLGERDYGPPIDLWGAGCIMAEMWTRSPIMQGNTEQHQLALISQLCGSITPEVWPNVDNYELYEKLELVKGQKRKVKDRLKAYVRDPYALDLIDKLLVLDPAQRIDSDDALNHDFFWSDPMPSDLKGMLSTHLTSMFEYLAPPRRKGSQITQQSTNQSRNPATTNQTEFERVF
Experiment [9] deals with Casein kinase II subunit alpha (Homo sapiens, UniProt P68400). The experiment is described as follows: Selectivity interaction (Kinase panel (radiometric kinase assay)) EUB0000677a CSNK2A1.
Casein kinase II subunit alpha, sequence (P68400 whole entry): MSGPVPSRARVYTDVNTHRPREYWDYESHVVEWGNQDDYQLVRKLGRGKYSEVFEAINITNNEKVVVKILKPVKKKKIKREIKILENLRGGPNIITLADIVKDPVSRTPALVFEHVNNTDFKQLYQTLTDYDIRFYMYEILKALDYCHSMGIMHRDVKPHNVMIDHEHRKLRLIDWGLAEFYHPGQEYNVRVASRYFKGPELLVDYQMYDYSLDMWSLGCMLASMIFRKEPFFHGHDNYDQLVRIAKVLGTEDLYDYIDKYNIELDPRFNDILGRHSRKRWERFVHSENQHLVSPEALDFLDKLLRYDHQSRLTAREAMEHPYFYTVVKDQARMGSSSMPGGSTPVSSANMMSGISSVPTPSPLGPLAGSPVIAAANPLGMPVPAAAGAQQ
In experiment [10] the target is Serine/threonine-protein kinase PLK1 (Homo sapiens, UniProt P53350). The conditions noted are these: at 1 µM.
Serine/threonine-protein kinase PLK1, sequence (P53350 whole entry): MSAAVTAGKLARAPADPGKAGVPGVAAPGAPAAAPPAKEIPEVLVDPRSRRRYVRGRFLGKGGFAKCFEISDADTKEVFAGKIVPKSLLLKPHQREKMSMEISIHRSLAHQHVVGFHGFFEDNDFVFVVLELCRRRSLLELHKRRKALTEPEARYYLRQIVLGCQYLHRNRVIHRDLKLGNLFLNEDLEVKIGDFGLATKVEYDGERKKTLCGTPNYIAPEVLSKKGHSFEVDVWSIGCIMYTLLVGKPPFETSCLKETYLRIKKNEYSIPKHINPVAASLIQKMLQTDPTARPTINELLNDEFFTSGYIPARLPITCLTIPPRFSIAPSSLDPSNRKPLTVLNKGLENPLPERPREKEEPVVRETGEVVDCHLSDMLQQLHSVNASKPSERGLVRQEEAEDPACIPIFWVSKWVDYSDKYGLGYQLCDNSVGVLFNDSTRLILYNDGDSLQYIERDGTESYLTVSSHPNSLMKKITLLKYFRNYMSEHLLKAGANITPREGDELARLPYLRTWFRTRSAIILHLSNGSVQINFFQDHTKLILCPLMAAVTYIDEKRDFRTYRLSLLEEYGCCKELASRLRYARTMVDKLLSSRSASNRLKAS
Experiment [11] relates to T3, Receptor-type tyrosine-protein kinase FLT3 (Homo sapiens), P36888 [D835Y].
T3 sequence (whole entry): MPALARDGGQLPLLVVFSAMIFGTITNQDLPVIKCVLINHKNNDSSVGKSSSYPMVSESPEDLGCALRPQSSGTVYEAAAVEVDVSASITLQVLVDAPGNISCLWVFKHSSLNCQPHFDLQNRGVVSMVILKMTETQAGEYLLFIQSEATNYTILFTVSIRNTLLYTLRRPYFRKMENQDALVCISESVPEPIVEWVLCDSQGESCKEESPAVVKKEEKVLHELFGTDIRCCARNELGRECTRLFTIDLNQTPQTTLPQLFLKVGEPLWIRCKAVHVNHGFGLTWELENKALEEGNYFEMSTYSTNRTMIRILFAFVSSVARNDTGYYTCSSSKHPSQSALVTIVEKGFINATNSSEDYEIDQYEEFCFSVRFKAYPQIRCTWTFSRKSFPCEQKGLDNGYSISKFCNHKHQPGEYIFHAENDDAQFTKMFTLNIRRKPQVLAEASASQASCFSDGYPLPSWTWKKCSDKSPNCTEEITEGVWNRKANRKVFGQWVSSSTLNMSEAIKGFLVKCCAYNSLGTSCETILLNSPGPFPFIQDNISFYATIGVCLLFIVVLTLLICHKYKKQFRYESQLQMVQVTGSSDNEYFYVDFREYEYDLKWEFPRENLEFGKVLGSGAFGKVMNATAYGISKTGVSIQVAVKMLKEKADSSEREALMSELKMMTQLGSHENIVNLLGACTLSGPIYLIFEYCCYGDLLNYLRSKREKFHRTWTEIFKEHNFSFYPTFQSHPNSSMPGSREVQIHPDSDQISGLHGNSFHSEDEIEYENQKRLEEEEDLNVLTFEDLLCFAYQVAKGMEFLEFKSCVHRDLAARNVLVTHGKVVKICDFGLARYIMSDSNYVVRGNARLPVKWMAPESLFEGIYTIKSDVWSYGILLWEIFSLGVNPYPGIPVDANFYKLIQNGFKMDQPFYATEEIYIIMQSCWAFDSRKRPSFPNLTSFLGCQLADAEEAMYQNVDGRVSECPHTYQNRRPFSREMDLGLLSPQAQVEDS
The conditions noted are these: at 1 µM.

Bounds are passed on as bounds.

Histamine H3 receptor, sequence (Q9Y5N1 whole entry): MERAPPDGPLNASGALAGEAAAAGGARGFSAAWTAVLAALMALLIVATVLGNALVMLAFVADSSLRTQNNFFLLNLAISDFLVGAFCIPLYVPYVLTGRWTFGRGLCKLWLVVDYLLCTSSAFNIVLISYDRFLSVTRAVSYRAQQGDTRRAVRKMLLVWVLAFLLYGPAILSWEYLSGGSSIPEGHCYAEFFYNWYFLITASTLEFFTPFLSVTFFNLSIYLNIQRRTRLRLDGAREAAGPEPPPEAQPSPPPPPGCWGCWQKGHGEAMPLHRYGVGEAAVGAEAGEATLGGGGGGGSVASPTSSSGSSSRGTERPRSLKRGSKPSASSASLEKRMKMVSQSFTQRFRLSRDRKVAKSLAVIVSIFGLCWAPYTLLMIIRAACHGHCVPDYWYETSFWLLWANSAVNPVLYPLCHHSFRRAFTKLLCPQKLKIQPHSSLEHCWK

`Cc1cc(Nc2nccc(C)n2)cc(-c2cnc([C@@]3(O)CC[C@H](C(=O)O)C(C)(C)C3)s2)c1` [MRL-SYKi] had a Ki on Histamine H3 receptor of over 10 µM. Further, the % of control in experiment [1] was found to be 25.2%; in experiment [2] it was 29.5%; in experiment [3], 30.2%; in [4] it was 14.7%.
With `O=C(NCCCN1CCOC1=O)c1cnc(NCc2cc(Br)ccc2Br)nc1NC1CCCC1`, the % of control in experiment [5] and in [7] was 100% throughout. Besides, the IC50 (at Aurora kinase C; in experiment [6]) was over 10 µM each time.
On to `CN1CCN(c2ccc(OC(F)(F)F)c(Nc3ncc4c(n3)-c3c(c(C(N)=O)nn3CCO)CC4)c2)CC1` [ONVANSERTIB], for which the figures for the % of control in experiment [8], in experiment [10] and in experiment [11] were 10%, 3% and 9%, respectively. In experiment [9], this molecule had an IC50 of 0.826 µM.

As usually defined, the Ki is the dissociation constant of the complex between target and ligand, obtained from inhibition or displacement. Higher therefore signals a looser hold on the target. The term IC50 denotes the midpoint of a concentration-inhibition curve. Higher therefore signals weaker potency.

Values taken from ChEMBL document CHEMBL5212743, “Selectivity Literature for EUbOPEN Chemogenomics Library wave 3” (2023).
